Measured values reported in ChEMBL document CHEMBL1201862, “PubChem BioAssay data set” (2004).
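Protocol summary: plate cells (96-well), add compound at 5 concentrations, incubate 48 h, interpolate endpoints linearly. GI50 = concentration required for 50% inhibition of growth.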 Active and inactive are the calls of the source. Cut-off read from the data, not from the text of the source: active = GI50 up to about 1.1 µM and inactive = higher.

Experiments:
Test in all cases: NCI-60 cell line screen, 48 h
[1] = system: OVCAR-5
[2] = system: PC-3
[3] = system: HOP-92
[4] = system: MDA-MB-435
[5] = system: SR
[6] = system: SNB-19
[7] = system: IGROV-1
[8] = system: Malme-3M
[9] = system: NCI/ADR-RES
[10] = system: MCF7
[11] = system: HT-29
[12] = system: SK-MEL-28
[13] = system: NCI-H460
[14] = system: ACHN
[15] = system: HCT-116
[16] = system: T47D
[17] = system: OVCAR-3
[18] = system: U-251
[19] = system: UACC-62
[20] = system: HCC 2998

SMILES | GI50 [1] | GI50 [2] | GI50 [3] | GI50 [4] | GI50 [5] | GI50 [6] | GI50 [7] | GI50 [8] | GI50 [9] | GI50 [10] | GI50 [11] | GI50 [12] | GI50 [13] | GI50 [14] | GI50 [15] | GI50 [16] | GI50 [17] | GI50 [18] | GI50 [19] | GI50 [20]
CCCCCC(CO)C(O)(C(F)(F)F)C(F)(F)F (stereo not given) | > 10 µM (inactive) | > 10 µM (inactive) | > 10 µM (inactive) | > 10 µM (inactive) | > 10 µM (inactive) | > 10 µM (inactive) | > 10 µM (inactive) | > 10 µM (inactive) | > 10 µM (inactive) | > 10 µM (inactive) | > 10 µM (inactive) | > 10 µM (inactive) | > 10 µM (inactive) | > 10 µM (inactive) | > 10 µM (inactive) | > 10 µM (inactive) | > 10 µM (inactive) | > 10 µM (inactive) | > 10 µM (inactive) | > 10 µM (inactive)
Cc1c(C)c(S(=O)(=O)N(CCCCCCN)OCCCN)c(C)c2c1OC(C)(C)CC2 | > 28.7 µM (inactive) | 3.7 µM (inactive) | 4.16 µM (inactive) | 5.37 µM (inactive) | 5.92 µM (inactive) | 3.96 µM (inactive) | 2 µM (inactive) | 2.15 µM (inactive) | 15.5 µM (inactive) | 9.59 µM (inactive) | 5.6 µM (inactive) | 17.6 µM (inactive) | 2.69 µM (inactive) | 8.99 µM (inactive) | 1.97 µM (inactive) | 12.1 µM (inactive) | 2.44 µM (inactive) | 4.46 µM (inactive) | 11.4 µM (inactive) | 2.04 µM (inactive)
O=C(O)C1=C(C(=O)O)N(c2ccncc2)C(c2ccco2)=CC1c1ccccc1[N+](=O)[O-] (stereo not given) | 15 µM (inactive) | 13.4 µM (inactive) | 7.06 µM (inactive) | 13.5 µM (inactive) | 2.03 µM (inactive) | 12.9 µM (inactive) | 1.85 µM (inactive) | 0.925 µM (active) | 22.6 µM (inactive) | 2.65 µM (inactive) | 2.18 µM (inactive) | 16.2 µM (inactive) | 12.6 µM (inactive) | 1.72 µM (inactive) | 1.83 µM (inactive) | 7.82 µM (inactive) | 8.17 µM (inactive) | 4.92 µM (inactive) | 15.3 µM (inactive) | 1.9 µM (inactive)
